Measured values: ChEMBL document CHEMBL1152219, “Synthesis and use of sulfonamide-, sulfoxide-, or sulfone-containing aminoglycoside-CoA bisubstrates as mechanistic probes for aminoglycoside N-6'-acetyltransferase” (Bioorg Med Chem Lett, 2008)

experiment: Inhibition of aminoglycoside N-6'-acetyltransferase Ii

Compound	Ki
CC(C)(COP(=O)(O)OP(=O)(O)OC[C@H]1O[C@@H](n2cnc3c(N)ncnc32)[C@H](O)[C@@H]1OP(=O)(O)O)[C@@H](O)C(=O)NCCC(=O)NCCSCCS(=O)(=O)NC[C@H]1O[C@H](O[C@H]2[C@H](O)[C@@H](O)[C@H](N)C[C@@H]2N)[C@H](N)[C@@H](O)[C@@H]1O	1600 nM
CC(C)(COP(=O)(O)OP(=O)(O)OC[C@H]1O[C@@H](n2cnc3c(N)ncnc32)[C@H](O)[C@@H]1OP(=O)(O)O)[C@@H](O)C(=O)NCCC(=O)NCC[S+]([O-])CCC(=O)NC[C@H]1O[C@H](O[C@H]2[C@H](O)[C@@H](O)[C@H](N)C[C@@H]2N)[C@H](N)[C@@H](O)[C@@H]1O (some centres not stated)	2000 nM
CC(C)(COP(=O)(O)OP(=O)(O)OC[C@H]1O[C@@H](n2cnc3c(N)ncnc32)[C@H](O)[C@@H]1OP(=O)(O)O)[C@@H](O)C(=O)NCCC(=O)NCCS(=O)(=O)CC(=O)NC[C@H]1O[C@H](O[C@H]2[C@H](O)[C@@H](O)[C@H](N)C[C@@H]2N)[C@H](N)[C@@H](O)[C@@H]1O	270 nM

Now those with a lower Ki, led by results:

Ki	Compound
76 nM	CC(C)(COP(=O)(O)OP(=O)(O)OC[C@H]1O[C@@H](n2cnc3c(N)ncnc32)[C@H](O)[C@@H]1OP(=O)(O)O)[C@@H](O)C(=O)NCCC(=O)NCCSCC(=O)NC[C@H]1O[C@H](O[C@H]2[C@H](O)[C@@H](O)[C@H](N)C[C@@H]2N)[C@H](N)[C@@H](O)[C@@H]1O
43 nM	CC(C)(COP(=O)(O)OP(=O)(O)OC[C@H]1O[C@@H](n2cnc3c(N)ncnc32)[C@H](O)[C@@H]1OP(=O)(O)O)[C@@H](O)C(=O)NCCC(=O)NCCSCCC(=O)NC[C@H]1O[C@H](O[C@H]2[C@H](O)[C@@H](O)[C@H](N)C[C@@H]2N)[C@H](N)[C@@H](O)[C@@H]1O
60 nM	CC(C)(COP(=O)(O)OP(=O)(O)OC[C@H]1O[C@@H](n2cnc3c(N)ncnc32)[C@H](O)[C@@H]1OP(=O)(O)O)[C@@H](O)C(=O)NCCC(=O)NCC[S+]([O-])CC(=O)NC[C@H]1O[C@H](O[C@H]2[C@H](O)[C@@H](O)[C@H](N)C[C@@H]2N)[C@H](N)[C@@H](O)[C@@H]1O (some centres not stated)
90 nM	CC(C)(COP(=O)(O)OP(=O)(O)OC[C@H]1O[C@@H](n2cnc3c(N)ncnc32)[C@H](O)[C@@H]1OP(=O)(O)O)[C@@H](O)C(=O)NCCC(=O)NCCS(=O)(=O)CCC(=O)NC[C@H]1O[C@H](O[C@H]2[C@H](O)[C@@H](O)[C@H](N)C[C@@H]2N)[C@H](N)[C@@H](O)[C@@H]1O
